In test [1] the test system is bacteria, fungi and yeasts. The note with it: general statement, no test described, cited from earlier work.
For test [2], the system named is bacteria, fungi and yeasts. The test is described as follows: Antimicrobial activity overall. The class given is cell-based. The text has this:
Below, the antimicrobial efficacy of a composition according to the invention consisting of 50% by weight of isorbide caprylate 1 and 50% by weight of a 10% by weight strength solution of the monoethanolamine salt of 4-methyl-6-(2,4,4-trimethylpentyl)-1-hydroxy-2-pyridone (Octopirox®, 100% by weight strength, Clariant) in butyl polyglycol against bacteria, fungi and yeasts is examined (hereinbelow, the composition is referred to as “composition A”). For the tests with bacteria, composition A was diluted with butyl polyglycol and then, at 50° C., added to liquid CASO agar (casein-peptone agar) buffered to pH 7 (+/−0.2) in various concentrations (hereinbelow referred to as compositions B1, B2, etc.). […]
The minimum inhibitory concentrations for the pure substances isosorbide caprylate 1 and Octopirox® were determined analogously. […]
(§1) Analogously to the determination of the antimicrobial activity according to the above example B), the antimicrobial activity of a mixture comprising, firstly, 89.6% by weight of isosorbide dicaprylate and 9.4% by weight of isosorbide monocaprylate (remainder: 1% by weight) (hereinbelow referred to as “isosorbide dicaprylate”) and, secondly, pure isosorbide was determined in further test series.

In another test the test system is Fusarium solani. The test is described as follows: Antimicrobial efficacy, MIC by agar dilution. Format: cell-based. The following applies: Sabouraud 4% dextrose agar pH 5.6.
Source text: (§2) Below, the antimicrobial efficacy of a composition according to the invention consisting of 50% by weight of isorbide caprylate 1 and 50% by weight of a 10% by weight strength solution of the monoethanolamine salt of 4-methyl-6-(2,4,4-trimethylpentyl)-1-hydroxy-2-pyridone (Octopirox®, 100% by weight strength, Clariant) in butyl polyglycol against bacteria, fungi and yeasts is examined (hereinbelow, the composition is referred to as “composition A”). For the tests with bacteria, composition A was diluted with butyl polyglycol and then, at 50° C., added to liquid CASO agar (casein-peptone agar) buffered to pH 7 (+/−0.2) in various concentrations (hereinbelow referred to as compositions B1, B2, etc.). For the tests with fungi and yeasts, composition A was diluted with butyl polyglycol and then added to liquid Sabouraud 4% dextrose agar buffered to pH 5.6 (+/−0.2) in various concentrations (hereinbelow referred to as compositions PH1, PH2, etc.). The compositions B1, B2, etc. and PH1, PH2 etc. were each poured into Petri dishes and each inoculated with identical amounts of bacteria, fungi and yeasts. The minimum inhibitory concentration (MIC) is the concentration at which inhibition of the growth of the bacteria, fungi and yeasts in the compositions B1, B2, etc. and PH1, PH2, etc. occurs.
(§3) The minimum inhibitory concentrations for the pure substances isosorbide caprylate 1 and Octopirox® were determined analogously.
(§4) The values determined for the minimum inhibitory concentrations “MIC mixture”, stated in Table 1 below, are based on the concentrations of composition A.
(§5) The values determined for the minimum inhibitory concentrations “QA” and “QB”, stated in Table 1 below, have already been corrected for the dilution effect of the butyl polyglycol.
(§6) Kull et al., Applied Microbiology 1961, 9, 538 using the formula below: SE=Qa/QA+Qb/QB where • Qa is the minimum inhibitory concentration of isosorbide caprylate 1 in the mixture employed, • QA is the minimum inhibitory concentration of isosorbide caprylate 1, • Qb is the minimum inhibitory concentration of Octopirox® in the mixture employed and • QB is the minimum inhibitory concentration of Octopirox®.
(§7) The values for Qa and Qb are determined from the values for the mixtures (“MIC mixture”) by multiplying the minimum inhibitory concentrations determined for Qa with the factor 0.5 and for Qb with the factor 0.05, because of the proportions of the ingredients—50% by weight of isosorbide caprylate 1 and 50% by weight of a 10% by weight strength solution of Octopirox® in butyl polyglycol—in composition A according to the invention examined.
(§8) If an SE value>1 is obtained, an antagonistic effect is present.
as §1

A further test relates to Proteus vulgaris. The test is described as follows: Antimicrobial efficacy, MIC by agar dilution. The note with it: CASO agar pH 7. The class given is cell-based.
Source text: as §2, §3, §4, §5, §6, §7, §8, §1
In general terms: In agar dilution the substance is mixed into plates at graded concentrations.

Another test relates to Citrobacter freundii. The test is described as follows: Antimicrobial efficacy, MIC by agar dilution. Format: cell-based. The note with it: CASO agar pH 7.
Source text: as §2, §3, §4, §5, §6, §7, §8, §1

The next test relates to Aspergillus brasiliensis. The test is described as follows: Antimicrobial efficacy, MIC by agar dilution. Format: cell-based. The following applies: Sabouraud 4% dextrose agar pH 5.6.
Source text: as §2, §3, §4, §5, §6, §7, §8, §1

A further test has as its system Escherichia coli. The test is described as follows: Antimicrobial efficacy, MIC by agar dilution. Format: cell-based. The note with it: CASO agar pH 7.
Source text: as §2, §3, §4, §5, §6, §7, §8, §1

The test system of the next test is Pseudomonas oleovorans. The test is described as follows: Antimicrobial efficacy, MIC by agar dilution. The class given is cell-based. The note with it: CASO agar pH 7.
Source text: as §2, §3, §4, §5, §6, §7, §8, §1

For another test, the system named is Enterobacter aerogenes. The test is described as follows: Antimicrobial efficacy, MIC by agar dilution. The class given is cell-based. The following applies: CASO agar pH 7.
Source text: as §2, §3, §4, §5, §6, §7, §8, §1

Another test has as its system Pseudomonas aeruginosa. The test is described as follows: Antimicrobial efficacy, MIC by agar dilution. The class given is cell-based. The following applies: CASO agar pH 7.
Source text: as §2, §3, §4, §5, §6, §7, §8, §1

In the next test the test system is Penicillium minioluteum. The test is described as follows: Antimicrobial efficacy, MIC by agar dilution. The class given is cell-based. The note with it: Sabouraud 4% dextrose agar pH 5.6.
Source text: as §2, §3, §4, §5, §6, §7, §8, §1

The subject of another test is Candida albicans. The test is described as follows: Antimicrobial efficacy, MIC by agar dilution. The following applies: Sabouraud 4% dextrose agar pH 5.6. The class given is cell-based.
Source text: as §2, §3, §4, §5, §6, §7, §8, §1

The test system of another test is Aspergillus terreus. The test is described as follows: Antimicrobial efficacy, MIC by agar dilution. The class given is cell-based. The following applies: Sabouraud 4% dextrose agar pH 5.6.
Source text: as §2, §3, §4, §5, §6, §7, §8, §1

The subject of a further test is Klebsiella pneumoniae. The test is described as follows: Antimicrobial efficacy, MIC by agar dilution. The class given is cell-based. The following applies: CASO agar pH 7.
Source text: as §2, §3, §4, §5, §6, §7, §8, §1

The next test concerns Penicillium funicolosium. The test is described as follows: Antimicrobial efficacy, MIC by agar dilution. The following applies: Sabouraud 4% dextrose agar pH 5.6. Format: cell-based.
Source text: as §2, §3, §4, §5, §6, §7, §8, §1

In another test the test system is Staphylococcus aureus. The test is described as follows: Antimicrobial efficacy, MIC by agar dilution. Format: cell-based. The note with it: CASO agar pH 7.
Source text: as §2, §3, §4, §5, §6, §7, §8, §1

Where [3] appears, read: MIC of Octopirox alone, corrected for butyl polyglycol dilution.
[4] abbreviates: MIC of Octopirox in the mixture (MIC mixture x 0.05).

On to `CCCCCCCC(=O)O` [caprylic acid], for which the antimicrobial efficacy entry in test [1] was “antimicrobially effective”. The “antimicrobial activity at a pH of 6 or above” value in test [1] (pH of 6 or above) was “no antimicrobial activity”.

Turning to isosorbide monocaprylate, the “antimicrobial activity (concluded)” value in [2] (concluded from QA of isosorbide caprylate 1 and inactivity of its other constituents) is on record as “significant antimicrobial activity”.

Turning to `Cc1cc(CC(C)CC(C)(C)C)n(O)c(=O)c1.NCCO` (centres unmarked) [Octopirox®, monoethanolamine salt of 4-methyl-6-(2,4,4-trimethylpentyl)-1-hydroxy-2-pyridone], the “OB, meas.” value was found to be 20 ppm with Fusarium solani (setting [3]); 25 ppm with Proteus vulgaris (setting [3]); 50 ppm in the test on Citrobacter freundii (setting [3]); 20 ppm in the test on Aspergillus brasiliensis (setting [3]); 25 ppm in the test with Escherichia coli (setting [3]); 50 ppm in the test with Pseudomonas oleovorans (setting [3]). Also, the “OB, meas.” value is 100 ppm in the test on Enterobacter aerogenes (setting [3]); 25 ppm with Pseudomonas aeruginosa (setting [3]); 20 ppm in the test on Penicillium minioluteum (setting [3]); 20 ppm with Candida albicans (setting [3]); 20 ppm with Aspergillus terreus (setting [3]); 50 ppm with Klebsiella pneumoniae (setting [3]). Also, the “OB, meas.” value in the test on Penicillium funicolosium (setting [3]) is recorded as 20 ppm; in the test with Staphylococcus aureus (setting [3]), 25 ppm. Besides, the “Ob, calc.” value in the test with Fusarium solani (setting [4]) is recorded as 10 ppm; in the test on Proteus vulgaris (setting [4]), 12.5 ppm; in the test on Citrobacter freundii (setting [4]), 25 ppm; in the test on Aspergillus brasiliensis (setting [4]) it was 10 ppm; with Escherichia coli (setting [4]), 25 ppm; in the test on Pseudomonas oleovorans (setting [4]), 25 ppm. In addition, the “Ob, calc.” value is listed as 25 ppm with Enterobacter aerogenes (setting [4]); 25 ppm with Pseudomonas aeruginosa (setting [4]); 10 ppm with Penicillium minioluteum (setting [4]); 10 ppm in the test with Candida albicans (setting [4]); 10 ppm with Aspergillus terreus (setting [4]); 25 ppm in the test on Klebsiella pneumoniae (setting [4]). Further, the “Ob, calc.” value is given as 10 ppm with Penicillium funicolosium (setting [4]) and 25 ppm in the test on Staphylococcus aureus (setting [4]).

Turning to `O[C@@H]1CO[C@H]2[C@@H]1OC[C@@H]2O` [isosorbide], the “antimicrobial activity (summary of Table 2)” value in test [2] (all bacteria, fungi and yeasts of Table 2) is “neither isosorbide nor isosorbide dicaprylate are antimicrobially active”.

(Values after patent US9295626B2, “Compositions comprising isosorbide monoester and N-hydroxypyridones” (Clariant International Ltd., priority 2011, dated 2016).)
